Measured values taken from patent US10829796B2, “Bacteria identification and antimicrobial susceptibility test” (priority 2015, dated 2020).

Key:
Type in all cases: cell-based
[1] = tested on: Staphylococcus aureus; test: Antibiotic susceptibility testing (colour of media), spiked milk; details: bacteria sample 5c
Procedure: Tables 36 to 38 which follow show further examples of antibiotic susceptibility testing performed in accordance with the present invention. Table 36, antibiotic susceptibility testing of Staphylococcus aureus in Mueller Hinton and Tryptic Soy Broth at pre-incubation and at between 15-24 h. Tables 37 and 38, antimicrobial susceptibility testing of Streptococcus uberis and E. coli with the addition of gram negative specific antibiotic aztreonam. Tables 38 to 49 show further examples of antibiotic susceptibility testing and the outcomes are aligned with the described inventions.

[2] = tested on: Streptococcus uberis; test: Colour change of enrichment media with pH indicator, bacteria in milk (stabilizing agent); details: excess concentration (Table 4e, 0.04%) in presence of milk; all inoculums investigated
From the text: The present invention overcomes these limitations through inclusion of one or more stabilizing agents which suppresses the potential inhibitory effect of the colour based pH indicator. As such, increased concentrations of the colour based pH indicator (e.g. phenol red) may be used in the test, thereby achieving stability in the colour change associated with bacteria growth. An example of a stabilizing agent according to the present invention is milk.
In this Example, liquid culture media is used which allows early and easy identification of susceptible antimicrobials to support decision of antimicrobial selection to treat bacterial infections. It also allows the detection of bacteria such as gram+ and/or gram-bacteria in clinical samples are present and/or allows estimation of the inoculum from kinetic analyses of colour change. The base of this liquid culture medium is a general purpose liquid enrichment medium for example tryptic soy broth (Soybean-Casein Digest Medium) but could also be Mueller Hinton broth. This TSB media has excess concentration of a pH indicator such as phenol red and/or bromocresol purple and milk. […] Colorimetric analyses can performed by the naked eye or by an optical reader for example via CCD camera chip or photo diode. […]

[3] = tested on: Streptococcus uberis; test: Group D Streptococci identification, esculin/ferric citrate in TSB (blackening = growth), bacteria in milk; details: TSB containing 0.5% esculin and 0.25% ferric citrate + 80 uL spiked milk; 100 ug/ml aztreonam and/or 0.5 mg/mL phenol red
Procedure: By way of illustration, the same experiment was conducted as above, only this time using clinical milk samples obtained from a bovine animal suspect of being infected with mastitis.
However, Applicant has discovered that increased amounts of esculin and ferric citrate may be used in milk derived clinical samples. For example, at concentrations of at least 2% esculin and 1% ferric citrate, the growth of Streptococcus uberis is not inhibited.
Note, in the experiments above, the clinical sample tested was milk obtained from a bovine animal suspected of being infected by mastitis. If a non-milk clinical sample were to be tested, then inclusion of a stabilizing agent (e.g. milk in the form of a liquid or powder) would be required in order to suppress the growth inhibitory effect of esculin and ferric citrate at the higher concentrations used according to this invention.
Applicant further discovered that TSB containing 0.5% esculin and 0.25% ferric citrate and 80 uL of spiked Streptococcus uberis milk sample which also contained 100 ug/ml aztreonam concentration (antibiotic which has activity against many gram-bacteria such as E. coli) and/or in combination with 0.5 mg/mL phenol red led to easy detectable colour changes. No inhibition of Streptococcus uberis due to phenol red or aztreonam was detected.

[4] = T = 0 hours (pre incubation), drug 0.01 μg/ml, Mueller Hinton (70 ul composition 26)
[5] = T = 0 hours (pre incubation), drug 0.05 μg/ml, Mueller Hinton (70 ul composition 26)
[6] = T = 0 hours (pre incubation), drug 0.1 μg/ml, Mueller Hinton (70 ul composition 26)
[7] = T = 0 hours (pre incubation), drug 0.5 μg/ml, Mueller Hinton (70 ul composition 26)
[8] = T = 0 hours (pre incubation), drug 1 μg/ml, Mueller Hinton (70 ul composition 26)
[9] = T = 0 hours (pre incubation), drug 5 μg/ml, Mueller Hinton (70 ul composition 26)
[10] = T = 0 hours (pre incubation), drug 10 μg/ml, Mueller Hinton (70 ul composition 26)
[11] = T = 0 hours (pre incubation), drug 50 μg/ml, Mueller Hinton (70 ul composition 26)
[12] = T = 0 hours (pre incubation), drug 100 μg/ml, Mueller Hinton (70 ul composition 26)
[13] = T = 0 hours (pre incubation), drug 500 μg/ml, Mueller Hinton (70 ul composition 26)
[14] = T = 15-24 h at 35° C., drug 0.01 μg/ml, Mueller Hinton (70 ul composition 26)
[15] = T = 15-24 h at 35° C., drug 0.05 μg/ml, Mueller Hinton (70 ul composition 26)
[16] = T = 15-24 h at 35° C., drug 0.1 μg/ml, Mueller Hinton (70 ul composition 26)
[17] = T = 15-24 h at 35° C., drug 0.5 μg/ml, Mueller Hinton (70 ul composition 26)
[18] = T = 15-24 h at 35° C., drug 1 μg/ml, Mueller Hinton (70 ul composition 26)
[19] = T = 15-24 h at 35° C., drug 5 μg/ml, Mueller Hinton (70 ul composition 26)
[20] = T = 15-24 h at 35° C., drug 10 μg/ml, Mueller Hinton (70 ul composition 26)
[21] = T = 15-24 h at 35° C., drug 50 μg/ml, Mueller Hinton (70 ul composition 26)
[22] = T = 15-24 h at 35° C., drug 100 μg/ml, Mueller Hinton (70 ul composition 26)
[23] = T = 15-24 h at 35° C., drug 500 μg/ml, Mueller Hinton (70 ul composition 26)

CC1=C(C(=O)O)N2C(=O)[C@@H](NC(=O)[C@H](N)c3ccccc3)[C@H]2SC1 [Cephalexin]
red: Colour of media [1, 4] | Colour of media [1, 5] | Colour of media [1, 6] | Colour of media [1, 7] | Colour of media [1, 8] | Colour of media [1, 9] | Colour of media [1, 10] | Colour of media [1, 11] | Colour of media [1, 12] | Colour of media [1, 13] | Colour of media [1, 18] | Colour of media [1, 19] | Colour of media [1, 20] | Colour of media [1, 21] | Colour of media [1, 22] | Colour of media [1, 23]
yellow: Colour of media [1, 14] | Colour of media [1, 15] | Colour of media [1, 16] | Colour of media [1, 17]

CN[C@@H]1[C@H](O[C@H]2[C@H](O[C@H]3[C@H](O)[C@@H](O)[C@H](NC(=N)N)[C@@H](O)[C@@H]3NC(=N)N)O[C@@H](C)[C@]2(O)CO)O[C@@H](CO)[C@H](O)[C@H]1O [Dihydrostreptomycin]
red: Colour of media ([1]; T = 0 hours (pre incubation), drug 0.01 μg/ml, Tryptic Soy (70 ul composition 2c)) | Colour of media ([1]; T = 0 hours (pre incubation), drug 0.05 μg/ml, Tryptic Soy (70 ul composition 2c)) | Colour of media ([1]; T = 0 hours (pre incubation), drug 0.1 μg/ml, Tryptic Soy (70 ul composition 2c)) | Colour of media ([1]; T = 0 hours (pre incubation), drug 0.5 μg/ml, Tryptic Soy (70 ul composition 2c)) | Colour of media ([1]; T = 0 hours (pre incubation), drug 1 μg/ml, Tryptic Soy (70 ul composition 2c)) | Colour of media ([1]; T = 0 hours (pre incubation), drug 5 μg/ml, Tryptic Soy (70 ul composition 2c)) | Colour of media ([1]; T = 0 hours (pre incubation), drug 10 μg/ml, Tryptic Soy (70 ul composition 2c)) | Colour of media ([1]; T = 0 hours (pre incubation), drug 50 μg/ml, Tryptic Soy (70 ul composition 2c)) | Colour of media ([1]; T = 0 hours (pre incubation), drug 100 μg/ml, Tryptic Soy (70 ul composition 2c)) | Colour of media ([1]; T = 0 hours (pre incubation), drug 500 μg/ml, Tryptic Soy (70 ul composition 2c)) | Colour of media ([1]; T = 15-24 h at 35° C., drug 100 μg/ml, Tryptic Soy (70 ul composition 2c)) | Colour of media ([1]; T = 15-24 h at 35° C., drug 500 μg/ml, Tryptic Soy (70 ul composition 2c))
yellow: Colour of media ([1]; T = 15-24 h at 35° C., drug 0.01 μg/ml, Tryptic Soy (70 ul composition 2c)) | Colour of media ([1]; T = 15-24 h at 35° C., drug 0.05 μg/ml, Tryptic Soy (70 ul composition 2c)) | Colour of media ([1]; T = 15-24 h at 35° C., drug 0.1 μg/ml, Tryptic Soy (70 ul composition 2c)) | Colour of media ([1]; T = 15-24 h at 35° C., drug 0.5 μg/ml, Tryptic Soy (70 ul composition 2c)) | Colour of media ([1]; T = 15-24 h at 35° C., drug 1 μg/ml, Tryptic Soy (70 ul composition 2c)) | Colour of media ([1]; T = 15-24 h at 35° C., drug 5 μg/ml, Tryptic Soy (70 ul composition 2c)) | Colour of media ([1]; T = 15-24 h at 35° C., drug 10 μg/ml, Tryptic Soy (70 ul composition 2c)) | Colour of media ([1]; T = 15-24 h at 35° C., drug 50 μg/ml, Tryptic Soy (70 ul composition 2c))

NC[C@@H]1O[C@H](O[C@H]2[C@@H](O)[C@H](O[C@@H]3[C@@H](O)[C@H](N)C[C@H](N)[C@H]3O[C@H]3O[C@H](CN)[C@@H](O)[C@H](O)[C@H]3N)O[C@@H]2CO)[C@H](N)[C@@H](O)[C@@H]1O [Neomycin]
yellow: Colour of media [1, 14] | Colour of media [1, 15] | Colour of media [1, 16] | Colour of media [1, 17] | Colour of media [1, 18]
red: Colour of media [1, 4] | Colour of media [1, 5] | Colour of media [1, 6] | Colour of media [1, 7] | Colour of media [1, 8] | Colour of media [1, 9] | Colour of media [1, 10] | Colour of media [1, 11] | Colour of media [1, 12] | Colour of media [1, 13] | Colour of media [1, 19] | Colour of media [1, 20] | Colour of media [1, 21] | Colour of media [1, 22] | Colour of media [1, 23]

Cc1cc(C2(c3cc(C)c(O)c(Br)c3)OS(=O)(=O)c3ccccc32)cc(Br)c1O [bromocresol purple]
does not inhibit growth: Growth inhibition [2]

O=S1(=O)OC(c2ccc(O)cc2)(c2ccc(O)cc2)c2ccccc21 [phenol red]
No inhibition: Inhibition of Streptococcus uberis [3]
